Test results reported in article PMC7175367, “1H-Imidazole-2,5-Dicarboxamides as NS4A Peptidomimetics: Identification of a New Approach to Inhibit HCV-NS3 Protease” (Biomolecules, 2020).
Where “and” joins values, the source holds several entries; their conditions need not be identical. Identical values can stand only once. Entries after “also recorded” stand apart in the source; their conditions may differ.

Legend:
[1] = target: T1, NS3 (NS4A21`–33` binding site) (Hepatitis C virus genotype 4a, UniProt O39929); test: Fluorescence anisotropy (FA) competition assay with FITC-NS4A21`–33`; set-up: species or system HCV genotype 4a; conditions: displacement of FITC-NS4A21`–33` (0.10 µM) from NS3, 480/520 nm, compounds 150 to 0.292 µM; for IC50: Competition IC50 ± SEM
T1 construct: NS3 protease domain 1–181 aa plus an N-terminal T7 tag and C-terminal His tag; made in house; host or cells: E. coli Rosetta (DE3) pLysS, vector pET-3a
Method: This assay measures the potency by which synthetic peptidomimetics affect the binding of labeled NS4A21`–33`. Before testing the MOC compounds, the binding affinity of fluorescein isothiocyanate NS4A21`–33` (FITC-NS4A21`–33`) was first determined (see Supplementary Material Figure S3) based on our previous work. For this particular protein batch, the optimal ratio to be used in the FA affinity test was calculated to be 0.5 µM NS3 and 0.1 µM FITC-NS4A21`–33`. Compounds that efficiently compete with NS4A21`–33` are expected to decrease the fluorescence emitted from NS3/FITC-4A21-34` mixture.
In a 96-well plate, we added a place binding buffer (20 mM HEPES, 10 mM DTT, 200 mM NaCl, pH 7.60) and a mixture of NS3 ([…]) and FITC-NS4A (0.10 µM) at the calculated affinity constant concentration. A serial dilution of MOC compounds (dissolved in 1.50% DMSO in binding buffer) (1/2 dilution starting from 150 to 0.292 µM) were mixed gently for 60 min in a dark place and the fluorescence was measured at excitation/emission wavelengths of 480/520 nm. The competition IC50 was calculated according to the recommended equation embedded in GraphPad Prism v. 8.0® and Instat® software.

NS3 domain = target: T2, NS3 domain (Hepatitis C virus genotype 4a, UniProt O39929); test: Differential static light scattering (DSLS) binding test; set-up: species or system HCV genotype 4a; conditions: NS3 domain 15.0 µM with equimolar compound; for ΔTagg (liganded protein − free protein): 25.0 to 85.0 °C, n = 3; for ΔTagg as % of the positive control NS4A21`–33`: relative to NS4A21`–33`
T2 construct: NS3 protease domain 1–181 aa plus an N-terminal T7 tag and C-terminal His tag; made in house; host or cells: E. coli Rosetta (DE3) pLysS, vector pET-3a
Method: We studied the binding of MOC compounds with NS3 by differential static light scattering (DSLS). The NS3 domain stability upon binding to NS4A was measured by monitoring denatured protein aggregation upon increasing the temperature gradually from 25.0 to 85.0 °C (0.5 °C increments) at 600 nm. If a ligand binds to the protein, this increases a protein’s aggregation temperature (Tagg). DSLS provides an advantage of being a label-free binding assay technique and ΔTagg (of liganded protein−free protein) can be used to assess relative binding affinities of ligands. For NS3, the ΔTagg values that occurred upon binding of the MOC compounds were measured and compared to that of NS4A21`–33` as a positive control.
We studied the binding of NS4A and its mutants with NS3 by DSLS using Stargazer-2™ (Harbinger Biotechnology and Engineering Corporation, Toronto, Canada). This method assesses protein stability by monitoring aggregate formation using controlled, gradually elevated temperatures. The NS3 domain stability upon binding to NS4A was measured by monitoring denatured protein aggregation upon increasing the temperature from 25.0 to 85.0 °C (0.5 °C increments) at 600 nm. The Tagg values were calculated automatically from raw data using Stargazer-AIR® software. All experiments were repeated three times using the same batch of NS3 protein.
The NS3 domain (15.0 µM), alone or mixed with an equimolar equivalent of tested MOC derivative, was added to a binding buffer (20.0 mM HEPES, 10.0 mM DTT, 200 mM NaCl, pH 7.60) to a final volume 100 µL. The mixture was incubated at room temperature with gentle shaking for 2 h. Afterwards, 10 µL of the mixture was transferred into a clear bottomed Nunc 384-well plate and covered by 10 µL paraffin oil to minimize evaporation. Protein aggregation was monitored by tracking the change in scattered light that was detected by a charged coupled device (CCD) camera. Snapshot images of the plate were taken every 0.5 °C. The pixel intensities in a preselected region of each well were integrated using image analysis software to generate a value representative of the total amount of scattered light in that region. These intensities were then plotted against temperature for each sample well and fitted to obtain the aggregation temperature (Tagg). Aggregation was monitored and analyzed to assess the effect of NS4A and its synthetic analogues on the stability of the NS3 as an indicator of binding. Each experiment was repeated three times. Statistical analysis was performed using GraphPad Prism v. 8.0® and Instat® v. 3.10 software.

NS3 protease = target: T3, NS3 protease (Hepatitis C virus genotype 4a, UniProt O39929); test: Enzyme inhibition assay (SensoLyte 520 HCV Protease Assay Kit, modified); format: biochemical, HCV genotype 4a
T3 construct: NS3 protease domain 1–181 aa plus an N-terminal T7 tag and C-terminal His tag; made in house; host or cells: E. coli Rosetta (DE3) pLysS, vector pET-3a
Method: MOC-24 was selected for a qualitative testing for its inhibition of NS3 protease activity. Experiments were carried out using the SensoLyte® 520 HCV Protease Assay Kit. This assay measures the recovered fluorescence emitted upon cleavage of the labeled peptide substrate representing the NS4A/NS4B junction. Considering that NS3 without NS4A is almost a thousand-times less catalytic, the method was modified to suit the purpose of our allosteric inhibition assay. […] As a positive control, an equimolar mixture of NS4A with NS3 (equimolar, 2.00 µM each) caused only a 9-fold increase in the catalytic activity of the enzyme (Figure 5), which was far less than the reported value, possibly due to the large amount of protein used.
The assay was performed using SensoLyte-520® HCV protease assay kit fluorometric* (Anaspec, Fremont, CA, USA) according to a modified procedure to suit the purpose of determination of allosteric inhibition. NS3 (2.00 µM) was mixed with MOC-24 (4.00 µM) for 15.0 min. Afterwards, 5-FAM/QXL™520 fluorescence resonance energy transfer (FRET) peptide was added as instructed by the assay kit manual. […] In the FRET peptide, the fluorescence of 5-FAM is quenched by QXL™520. Upon cleavage into two separate fragments by HCV NS3/4A protease, the fluorescence of 5-FAM is recovered, and can be monitored at 490 nm/520 nm (excitation/emission). […]

[2] = target: HCV NS3 protease domain, genotype 4a (1-181 aa, N-terminal T7 tag, C-terminal His tag) (hepatitis C virus genotype 4a)

Molecule	IC50 [1]	melting point [°C]	ΔTagg (liganded protein − free protein) (NS3 domain)	other results
CC(C)CCCCCNC(=O)c1ncc(C(=O)NCCCCNC(=N)N)[nH]1 [MOC-31, N^5-(4-Guanidinobutyl)-N^2-(6-methylheptyl)-1H-imidazole-2,5-dicarboxamide]	12.1 ± 1.69 µM	83 to 84	–	–
CCCCCNC(=O)c1ncc(C(=O)NCCCCNC(=N)N)[nH]1 [MOC-23, N^5-(4-Guanidinobutyl)-N^2-(n-pentyl)-1H-imidazole-2,5-dicarboxamide]	4.7 ± 0.327 µM	–	0.32 °C	ΔTagg as % of the positive control NS4A21`–33` (NS3 domain): 19.5%
CCC(C)CCNC(=O)c1ncc(C(=O)NCCCCNC(=N)N)[nH]1 (centres unmarked) [MOC-32, N^5-(4-guanidinobutyl)-N^2-(3-methylpentyl)-1H-imidazole-2,5-dicarboxamide]	7.7 µM and 7.74 µM	–	–	–
CCCCCCNC(=O)c1ncc(C(=O)NCc2ccccn2)[nH]1 [MOC-33, N^2-(n-Hexyl)-N^5-(pyridin-2-ylmethyl)-1H-imidazole-2,5-dicarboxamide]	40.3 ± 24 µM	–	much weaker binding	Competition IC50 ± SEM [1]: much weaker binding
LL-G21SVVIVGRIVLSG33-LL [NS4A]	–	–	–	fold increase in the catalytic activity of the enzyme (NS3 protease; positive control, NS4A equimolar with NS3, 2.00 µM each): 9 fold
N=C(N)NCCCCNC(=O)c1cnc(C(=O)NCCCOc2ccccc2)[nH]1 [MOC-29, N^5-(4-Guanidinobutyl)-N^2-(3-phenoxypropyl)-1H-imidazole-2,5-dicarboxamide]	> 100 µM	135 to 138	–	–
CC(C)OCCCCNC(=O)c1ncc(C(=O)NCCCCNC(=N)N)[nH]1 [MOC-30, N^5-(4-Guanidinobutyl)-N^2-(4-isopropoxybutyl)-1H-imidazole-2,5-dicarboxamide]	28.5 ± 8.55 µM	–	–	–
N=C(N)NCCCCNC(=O)c1cnc(C(=O)NCCOc2ccccc2)[nH]1 [MOC-28, N^5-(4-Guanidinobutyl)-N^2-(2-phenoxyethyl)-1H-imidazole-2,5-dicarboxamide]	> 100 µM	137 to 139	–	–
CCCCCNC(=O)c1ncc(C(=O)NCC(=O)NC)[nH]1 [MOC-11, N^5-(2-(Methylamino)-2-oxoethyl)-N^2-(n-pentyl)-1H-imidazole-2,5-dicarboxamide]	17.3 ± 1.22 µM	87	0.82 °C	ΔTagg as % of the positive control NS4A21`–33` (NS3 domain): 54.6%
NS4A_(21`–33`) peptide, LL-G21…33-LL	–	–	–	NS3 protease activity (SensoLyte 520 HCV protease assay, 5-FAM/QXL520 FRET peptide); NS3 2.00 µM with NS4A 2.00 µM against NS3 alone [2]: 9 fold
N=C(N)NCCCCNC(=O)c1cnc(C(=O)NCCCOC2CCCCC2)[nH]1 [MOC-27, N^2-(3-(Cyclohexyloxy)propyl)-N^5-(4-guanidinobutyl)-1H-imidazole-2,5-dicarboxamide]	> 100 µM	–	–	–
CCCCCCNC(=O)c1ncc(C(=O)NCCCCNC(=N)N)[nH]1 [MOC-24, N^5-(4-Guanidinobutyl)-N^2-(n-hexyl)-1H-imidazole-2,5-dicarboxamide]	1.9 µM and 1.91 µM	–	0.60 °C	ΔTagg as % of the positive control NS4A21`–33` (NS3 domain): 39.8% and 40%; NS3 catalytic activity (NS3 protease; qualitative, NS3 2.00 µM, MOC-24 4.00 µM, 5-FAM/QXL520 FRET peptide): inhibited NS3 protease activity; also recorded: complete loss of NS3 catalytic activity
N=C(N)NCCCCNC(=O)c1cnc(C(=O)NCCOC2CCCCC2)[nH]1 [MOC-26, N^2-(2-(Cyclohexyloxy)ethyl)-N^5-(4-guanidinobutyl)-1H-imidazole-2,5-dicarboxamide]	> 100 µM	–	–	–
